Patent US11234985B2, “Antiviral therapy” (VIIV HEALTHCARE COMPANY, priority 2010, dated 2022)

Test system: HIV-1 (strain IIIB)
Test: Antiviral HIV activity in combination, tetrazolium-based (MTS) colorimetric checkerboard assay in MT-4 cells
Type: cell-based
Conditions: HIV-1 IIIB infected MT-4 cells, 5 days
Procedure: Antiviral HIV activity was measured by means of a tetrazolium-based colorimetric procedure in the human T-cell leukemia virus (HTLV-1) transformed cell line MT-4. Aliquots of test compound were diluted vertically across a deep-well master assay plate, in medium (RPMI 1640, 10% vol./vol. fetal bovine serum (FBS), and 10 μg/mL gentamicin), at concentrations that were approximately 40-fold higher than the final assay concentration. Serial dilutions were made at either 1:2 or 1:3.16 ratios. HIV inhibitors were diluted horizontally across master assay plates, also in concentrations that were approximately 40-fold higher than the final assay concentration. Small aliquots of both the vertically-diluted and the horizontally-diluted compounds were combined in daughter plates using an automated 96-well pipetting system (RapidPlate-96, Zymark Corp.). Checkerboard style dilutions were arranged so that every concentration of test compound was tested in the presence and absence of every concentration of the HIV inhibitors. Anti-HIV activity tests were performed in triplicate assays, or more, of each combination. Exponentially growing MT-4 cells were harvested and centrifuged at 1,000 rpm for 10 minutes in a Jouan centrifuge (Model CR 4 12). Cell pellets were re-suspended in fresh medium (RPMI 1640, 20% vol./vol. FBS, 20% vol./vol. IL-2, and 10 μg/mL gentamicin) to a density of 1.25×10^6 cells/mL. Cell aliquots were infected by the addition of HIV-1 (strain IIIB) diluted to give a viral multiplicity of infection (MOI) of 73 pfU per 1×10^4 cells. A similar cell aliquot was diluted with medium to provide a mock-infected control. Cell infection was allowed to proceed for 1 hour at 37° C. in a tissue culture incubator with humidified 5% CO2 atmosphere. After the 1 hour incubation the virus/cell suspension was added to each well of the plates containing pre-diluted compounds. Plates were then placed in a tissue culture incubator with humidified 5% CO2 for 5 days. At the end of the incubation period, […] of CellTiter 96 MTS reagent (Promega no. G3581) was added to each well of the incubation plate. Plates were incubated at 37° C. for 2 to 3 hours to allow for color development. O.D. was measured at […] using a microplate absorbance reader (Tecan no. 20-300).
HIV-1 strain IIIB, wild-type laboratory strain, virus titer=6.896 E4 TCID50/mL.
Although some assay formats might theoretically miss antagonism due to combination cytotoxicity, the approach described here should not miss an antagonistic effect. The readout in the MT-4 cell assay utilizes MTS, a tetrazolium-based staining reagent where changes in optical density (O.D.) of the reagent are used to estimate the total cell number remaining after treatment. Final MT-4 cell numbers may decrease due to two effects. First, an HIV-induced cytotoxicity may occur when HIV kills greater than 75% of the MT-4 cells during the 5 days following infection. Second, a compound-induced cytotoxicity may occur, where the compound either directly kills the MT-4 cells or prevents cell growth (stasis) over the 5 days in either infected or uninfected cells. In either of these situations the O.D. is low as compared with infected cells protected by anti-HIV-1 compounds or relative to untreated and uninfected control cells. Since both cytotoxic effects and antagonism of anti-HIV activity would lead to lower O.D. we should not miss an antagonistic effect due to combination cytotoxicity, but could underestimate synergistic combinations.
Within assay combination cytotoxicity was evaluated by comparing wells containing the uninfected MT-4 cells from the assay plates that contained the highest concentration of test compound or the comparator compound, with wells containing […] MT-4 cells under the corresponding highest combination concentrations. For each of these values there is one well per assay plate and thus at least 3 wells per combination assay. […]

## C[C@@H]1CCO[C@H]2Cn3cc(C(=O)NCc4ccc(F)cc4F)c(=O)c(O)c3C(=O)N12 [formula (I)]
In combination with abacavir
  interaction (deviation from dosewise additivity) of anti-HIV activity: synergistic
In combination with adefovir
  interaction (deviation from dosewise additivity) of anti-HIV activity: additive
In combination with amprenavir
  interaction (deviation from dosewise additivity) of anti-HIV activity: synergistic
In combination with efavirenz
  interaction (deviation from dosewise additivity) of anti-HIV activity: synergistic
In combination with enfuvirtide
  interaction (deviation from dosewise additivity) of anti-HIV activity: synergistic
In combination with lopinavir
  interaction (deviation from dosewise additivity) of anti-HIV activity: synergistic
In combination with maraviroc
  interaction (deviation from dosewise additivity) of anti-HIV activity: additive
In combination with nevirapine
  interaction (deviation from dosewise additivity) of anti-HIV activity: synergistic
In combination with raltegravir
  interaction (deviation from dosewise additivity) of anti-HIV activity: additive
In combination with stavudine
  interaction (deviation from dosewise additivity) of anti-HIV activity: synergistic
In the presence of ribavirin
  effect of the presence of ribavirin on anti-HIV activity: not affected
